Source: patent US4053632A, “Compounds of spiro-amine type and methods for their use” (priority 1971, dated 1977)
Entries after “also recorded” stand apart in the source; their conditions may differ. Where two headings read alike, the source gives them in different places.

What was measured:
[1] = system: uptake of 5-HT (midbrain slices); assay: Inhibition of the uptake of tritiated 5-HT in vivo; design: species or system mouse; settings: for ED50: Mus musculus, ip, 0.5 h, i.p., in vivo, read-out: Inhibition (50 %) of uptake in vivo, 5-HT
Experimental: The drugs were administered intraperitoneally half an hour before the animals were killed and the midbrain was taken out and sliced and incubated in a mixture consisting of, per 100 mg of brain slices, 0.2 μmole of ^3 H-5-HT and 1 μmole of glucose in 2 ml of Krebs-Henseleit buffer, pH 7.4. The incubation time was 5 minutes with 5 minutes of preincubation before ^3 H-5-HT was added. The radioactive ^3 H-5-HT taken up in the slices was extracted with ethanol and the amount was determined by liquid scintillation. The dose producing 50 per cent decrease of the active uptake (ED50) was determined graphically from dose response curves. Active uptake is defined as that part of the radioactive uptake which is inhibited by a high concentration of cocaine. All doses were given at least to four animals.

[2] = system: uptake of noradrenaline (cortex slices); assay: Inhibition of the uptake of tritiated noradrenaline in vivo; settings: for ED50: ip, read-out: Inhibition (50 %) of uptake in vivo, NA; for effectiveness in blocking the uptake of noradrenaline in vivo relative to imipramine: versus imipramine
Experimental: The animals were killed half or one hour after the administration of the drugs in vivo (i.p.). The slices, made from cortex, were preincubated for five minutes and incubated with 0.1 μmole per ml of ^3 H-noradrenaline for further five minutes. The incubation mixture consisted of 0.2 μmole of ^3 H-NA and the brain slices in 2 ml of Krebs-Henseleits buffer, pH 7.4. The radioactive ^3 H-NA taken up in the slices was extracted with ethanol and the amount was determined by liquid scintillation. The dose producing 50 per cent decrease of the active uptake (ED50) was determined graphically from dose response curves. At least four animals were used at each dose level.

[3] = system: pupil width (mydriasis); settings: mouse, in vivo; for PD200 (Table 4) / Peripheral anti-cholinergic action PD200: iv, 10 min
Experimental: (§1) The compounds were given by intravenous route to 3 mice. […] Seizures, gait, sedation and grip strength were recorded.
(§2) Acute toxicity was tested by the intraveneous, intraperitoneal and oral routes of administration. […] During the oral route a behavioral scoring system was used in order to relate changes in behavior to dose. The LD50 values were determined graphically from log dose -- response curves based on four doses with three animals per dose. Peripheral parasympatholytic effect was tested in mice by observing the mydriatic effect after intravenous injection (9) (four doses with three animals per dose). PD200 refers to the dose which increases the pupil width by 200%.

[4] = in vivo; settings: mouse
Experimental: as §1, §2

[5] = system: l-Dopa response; assay: Dopa response potentiation test; assay type: in vivo, mouse
Experimental: This test is developed by G.M. Everett (Antidepressant drugs,[…] in groups of 3 are pretreated with Pargyline ®40 l mg/kg p.o. about 10-16 hours before the test. […] 1. piloerection, slight salivation, slight increased motor activity 2. piloerection, salivation, marked increased motor activity and irritability 3. piloerection, profuse salivation, marked irritability and reactivity, jumping, squeaking, fighting.

[6] = system: motor activity; assay: Motor activity in mice; assay type: in vivo, mouse; settings: for ED50: Mus musculus, 1 h; for ED50 / sedation (motor activity) versus CPZ: mice
Experimental: The exploratory activity of mice was recorded in a locomotion cage in which the movements were counted each time the animals cross-circuits on electrical current in the bottom plate. […] The animals were tested individually. Groups of six mice were used and the mice were only used once. The activity was expressed in percent of the activity of control groups ran simultaneously.
Sedative activity was defined as suppression of normal motor activity. The motor activity in mice was automatically recorded in a locomotion cage in which the movements are counted each time the animal short-circuits an electrical current in the bottom plate. […] The animals were tested individually. Groups of six mice were used. The activity was expressed in percent of the activity of control groups run simultaneously.

[7] = system: 5-HTP response; assay: 5-HTP response potentiation test; assay type: in vivo, mouse; settings: for minimal effective dose: Mus musculus, ip
Experimental: These small movements are quantitatively measured in an activity box, type Animex, which can distinguish between small and gross movements. The activity is measured during 20 minutes and only in the case the animals have a fullblown syndrome.

[8] = system: uptake of 5-HT (midbrain slices); assay: Inhibition of the uptake of tritiated 5-HT in vitro (brain slices); assay type: biochemical, mouse
[9] = system: mice; assay: Acute toxicity in mice; settings: in words
Experimental: as §1, §2

[10] = system: uptake of noradrenaline (cortex slices); assay: Inhibition of the uptake of tritiated noradrenaline in vitro (brain slices); assay type: biochemical; settings: dl-noradrenaline 10^-7 M
[11] = system: pupil width (mydriasis); assay: Peripheral anticholinergic (parasympatholytic) effect, mydriasis in mice; settings: for Peripheral anti-cholinergic action PD200: i.v., dose increasing the pupil by 200%
Experimental: as §1, §2

[12] = system: rabbits; assay: Drug induced arrhythmias in rabbits; assay type: in vivo, rabbit
Source text: Test drugs were intravenously administered to male rabbits anesthesized wth amytal. The doses were increased stepwise up to the lethal dose and the first dose which induced arrhythmia was noted.

[13] = system: conditioned avoidance response (CAR); assay: Conditioned avoidance response in rats; assay type: in vivo, rat; settings: rat; for CAR CD50: i.p., 60 min; for effect on conditioned avoidance response: in words
Experimental: For this reason the conditioned avoidance test has been developed for initial screening of neuroleptics. Rats were trained to avoid electrical shock by jumping from one compartment to the other in a shuttle box. The conditioned stimulus consists of an auditory signal which after eight seconds was followed by the electrical shock. The rates were trained to a criterion of making eight out of ten responses correctly. The drugs were injected one hour before the test. The avoidance responses are expressed in percentage of those before administration. CD50 is the dose which reduces the avoidance response to 50% of control values.

[14] = Mus musculus, ip; read-out: Potentiation of l-Dopa, effective dose
[15] = ip, i.p., read-out: Motor activity ID50 (Table 4)

CN(C)C1CCC2(CC1)c1ccccc1CCc1ccc(Cl)cc12 (stereo not drawn) [SIR 117]
ED50 [1]: > 40 mg/kg
ED50 [2]: > 40 mg/kg
PD200 (Table 4) [3]: 15 mg/kg
Peripheral anti-cholinergic action PD200 [3]: 15 mg/kg
LD50 at 24 h ([4]; iv): 27 mg/kg
minimal effective dose [5, 14]: > 10 mg/kg
ED50 ([6]; read-out: Motor activity ID50): 14 mg/kg
ED50 [6, 15]: 14 mg/kg
sedation (motor activity) versus CPZ ([6]; in words): somewhat less active
minimal effective dose [7]: > 25 mg/kg
Inhibition (50 %) of uptake in vitro, 5-HT [8]: 5 µg/mL
acute toxicity versus CPZ [9]: intravenous toxicity in the same range as CPZ
Inhibition (50 %) of uptake in vitro, NA [10]: 1.5 µg/mL

CNC1CCC2(CC1)c1ccccc1C=Cc1ccccc12 [CPG 148]
ED50 [1]: > 40 mg/kg
ED50 [2]: > 40 mg/kg
LD50 at 24 h ([4]; iv): 60 mg/kg
minimal effective dose [5, 14]: > 10 mg/kg
ED50 ([6]; read-out: Motor activity ID50): 35 mg/kg
Peripheral anti-cholinergic action PD200 [11]: 3.5 mg/kg
minimal effective dose [7]: > 25 mg/kg
Inhibition (50 %) of uptake in vitro, 5-HT [8]: 3 µg/mL
Inhibition (50 %) of uptake in vitro, NA [10]: 1.5 µg/mL

CN(C)CCC=C1c2ccccc2CCc2ccccc21 [Amitriptyline, reference compound]
l-Dopa syndrome score ([5]; 20 mg/kg i.p. 4 hours before l-Dopa): three

CN(C)C1CCC2(CC1)c1ccccc1C=Cc1ccccc12 [CPG 147]
ED50 [1]: > 40 mg/kg
ED50 [2]: 1.5 mg/kg
effectiveness in blocking the uptake of noradrenaline in vivo relative to imipramine [2]: about three times as effective as imipramine
LD50 at 24 h ([4]; iv): 32 mg/kg
minimal effective dose [5, 14]: 2.5 mg/kg
ED50 ([6]; read-out: Motor activity ID50): 27 mg/kg
Peripheral anti-cholinergic action PD200 [11]: 1 mg/kg
minimal effective dose [7]: > 25 mg/kg
Inhibition (50 %) of uptake in vitro, 5-HT [8]: 4 µg/mL
Inhibition (50 %) of uptake in vitro, NA [10]: 0.05 µg/mL

NC1C=CC2(CC1)c1ccccc1C=Cc1ccccc12 (stereo not drawn) [CPG 186]
ED50 [1]: 28 mg/kg
blocking the uptake of 5-HT in vivo versus imipramine ([1]; in words): blocks the uptake of 5-HT in equivalent doses
ED50 [2]: 14 mg/kg
anticholinergic effects [3]: devoid of the anticholinergic effects
Peripheral anti-cholinergic action PD200 [3]: > 25 mg/kg
LD50 at 24 h ([4]; iv): 25 mg/kg
minimal effective dose [5, 14]: > 10 mg/kg
ED50 ([6]; read-out: Motor activity ID50): > 50 mg/kg
sedation / tranquilizing effect ([6]; in words): gave sedation only in high doses
minimal effective dose [7]: 25 mg/kg
Inhibition (50 %) of uptake in vitro, 5-HT [8]: > 10 µg/mL
arrhythmia in rabbits ([12]; nonlethal doses, in words): did not cause arrhythmia in nonlethal doses in rabbits
Arrythmia (rabbit), accumulated i.v. dose where there are signs of arrythmia ([12]; rabbit, in vivo, iv): > 10
Inhibition (50 %) of uptake in vitro, NA [10]: 1.5 µg/mL

NC1CCC2(CC1)c1ccccc1C=Cc1ccccc12 [CPG 191]
ED50 [1]: > 40 mg/kg
ED50 [2]: > 40 mg/kg
Peripheral anti-cholinergic action PD200 [3]: < 10 mg/kg
LD50 at 24 h ([4]; iv): 32 mg/kg
minimal effective dose [5, 14]: > 10 mg/kg
ED50 ([6]; read-out: Motor activity ID50): 53 mg/kg
minimal effective dose [7]: > 25 mg/kg
Inhibition (50 %) of uptake in vitro, 5-HT [8]: 2 µg/mL
Inhibition (50 %) of uptake in vitro, NA [10]: 1.5 µg/mL

CNC1C=CC2(CC1)c1ccccc1C=Cc1ccccc12 (stereo not drawn) [CPG 264]
ED50 [1]: > 40 mg/kg
ED50 [2]: 1.3 mg/kg
effectiveness in blocking the uptake of noradrenaline in vivo relative to imipramine [2]: about three times as effective as imipramine
LD50 at 24 h ([4]; iv): 25 mg/kg
minimal effective dose [5, 14]: > 10 mg/kg
ED50 ([6]; read-out: Motor activity ID50): 13 mg/kg
Peripheral anti-cholinergic action PD200 [11]: 2.5 mg/kg
minimal effective dose [7]: > 25 mg/kg
Inhibition (50 %) of uptake in vitro, 5-HT [8]: 1.3 µg/mL
Inhibition (50 %) of uptake in vitro, NA [10]: 0.3 µg/mL

CN(C)C1C=CC2(CC1)c1ccccc1C=Cc1ccccc12 (stereo not drawn) [CPG 146]
ED50 [1]: > 40 mg/kg
ED50 [2]: 1.7 mg/kg
effectiveness in blocking the uptake of noradrenaline in vivo relative to imipramine [2]: about three times as effective as imipramine
LD50 at 24 h ([4]; iv): 30 mg/kg
Peripheral anti-cholinergic action PD200 [11]: 1 mg/kg
Inhibition (50 %) of uptake in vitro, 5-HT [8]: 4 µg/mL
Inhibition (50 %) of uptake in vitro, NA [10]: 0.02 µg/mL

CN(C)C1CCC2(CC1)c1ccccc1C=Cc1ccc(Cl)cc12 (stereo not drawn) [SIR 118]
ED50 [1]: > 40 mg/kg
ED50 [2]: > 40 mg/kg
Peripheral anti-cholinergic action PD200 [3]: 9 mg/kg
LD50 at 24 h ([4]; iv): 18 mg/kg
minimal effective dose [5, 14]: > 10 mg/kg
ED50 ([6]; read-out: Motor activity ID50): 11 mg/kg
ED50 [6, 15]: 11 mg/kg
sedation (motor activity) versus CPZ ([6]; in words): somewhat less active
minimal effective dose [7]: > 25 mg/kg
Inhibition (50 %) of uptake in vitro, 5-HT [8]: 4 µg/mL
acute toxicity versus CPZ [9]: intravenous toxicity in the same range as CPZ
Inhibition (50 %) of uptake in vitro, NA [10]: 1.5 µg/mL

CN(C)C1C=CC2(CC1)c1ccccc1C=Cc1ccc(Cl)cc12 (stereo not drawn) [SIR 114]
ED50 [1]: > 40 mg/kg
ED50 [2]: > 40 mg/kg
PD200 (Table 4) [3]: 15 mg/kg
Peripheral anti-cholinergic action PD200 [3]: 15 mg/kg
LD50 at 24 h ([4]; ip): 130 mg/kg
LD50 at 24 h ([4]; iv): 22 mg/kg
minimal effective dose [5, 14]: > 10 mg/kg
ED50 ([6]; read-out: Motor activity ID50): 5.5 mg/kg
ED50 [6, 15]: 5.5 mg/kg
sedation (motor activity) versus CPZ ([6]; in words): caused sedation in the mice at about the same dose as CPZ
minimal effective dose [7]: > 25 mg/kg
Inhibition (50 %) of uptake in vitro, 5-HT [8]: 7 µg/mL
acute toxicity versus CPZ [9]: intravenous toxicity in the same range as CPZ
Inhibition (50 %) of uptake in vitro, NA [10]: 2.5 µg/mL

CN(C)C1C=CC2(CC1)c1ccccc1CCc1ccc(Cl)cc12 (stereo not drawn) [SIR 125]
CAR CD50 [13]: < 2.5 mg/kg
effect on conditioned avoidance response [13]: more potent than the racemate SIR 109 and also more potent than CPZ; also recorded: more potent than both SIR 109 and chlorpromazine
effect on conditioned avoidance response ([13]; listed as β-isomer): the biological activity mainly originates from the β-isomer

CN(C)CCCN1c2ccccc2CCc2ccccc21 [Imipramine, reference compound]
ED50 [1]: 24 mg/kg
ED50 [2]: 6 mg/kg
minimal effective dose ([5]; Mus musculus, ip, read-out: Potentiation of l-Dopa, effective dose): 10 mg/kg
ED50 ([6]; read-out: Motor activity ID50): 45 mg/kg
Peripheral anti-cholinergic action PD200 [11]: 13 mg/kg
anticholinergic effects ([11]; in words): anticholinergic effects shared by imipramine
minimal effective dose [7]: 25 mg/kg
potentiation of dl-5-HTP ([7]; reference, in words): constantly potentiated dl-5-HTP
Inhibition (50 %) of uptake in vitro, 5-HT [8]: 0.1 µg/mL
Inhibition (50 %) of uptake in vitro, NA [10]: 0.06 µg/mL

CN(C)C1C=CC2(CC1)c1ccccc1CCc1ccc(Cl)cc12 (stereo not drawn) [SIR 124]
CAR CD50 [13]: > 10 mg/kg
effect on conditioned avoidance response [13]: relatively weak effect on CAR
